Data as given in patent US5549910A, “Preparation of liposome and lipid complex compositions” (priority 1994, dated 1996).
Where a name gives a salt, the structure may show the parent alone. Read-outs that look alike come from different tables or passages of the source.

Columns and labels:
[1] = Solubility and solution stability; assay type: physicochemical
Procedure: Solutions of the polyene antibiotics amphotericin B (30 mM) and nystatin (50 mM) were prepared in DMSO. The primaricin aqueous suspension obtained from Sigma was lyophilized and resuspended in various solvents. […] The polyene antibiotics were combined with the various lipids in a solvent mixture of DMSO, DMSO:MP or DMSO:EtOH (7:3) and then injected into the aqueous phase. The preparations formed were transferred to a dialysis bag and dialyzed versus 100 volumes of distilled water, changed twice unless otherwise indicated. The ratio of the components, exact solvent mixtures and other conditions are given in the results. Samples of the preparations were dissolved in methanol and the polyene concentration determined spectrophotometrically (Szoka et al., supra): amphotericin B at 406 nm, nystatin at 306 nm and primaricin at 318 nm.

[2] = Acute mortality (death within 24 hours of drug administration) in immunosuppressed rabbits challenged with A. fumigatus; assay type: in vivo, rabbit; conditions: animals dead/total
Procedure: Liposomes were prepared with amphotericin B and cholesterol sulfate as described in Example 3. An immunosuppressive neutropenic rabbit model of invasive aspergillosis was used to compare the lipidic particle formulation with free amphotericin B.
Twenty-eight rabbits were immunosuppressed by administration of cyclophosphamide and triamcinolone. The rabbits were then challenged with 10^6 A. fumigatus. After 24 hours, the rabbits were divided into three treatment groups: eight rabbits received 4.5 mg/Kg/day free amphotericin B; four rabbits received 7.5 mg/Kg/day free amphotericin B; five rabbits received 6-9 mg/Kg/day amphotericin B lipidic particles (equivalent to 3-4.5 mg/Kg/day amphotericin B); three rabbits received 15 mg/Kg/day amphotericin B lipidic particles (equivalent to 7.5 mg/Kg/day amphotericin B); and eight rabbits were controls.
Treatment was continued for 30 days for the 4.5 mg/Kg free amphotericin B and 6-9 mg/Kg lipidic particle treatment groups.

[3] = system: A. fumigatus; assay: Immunosuppressive neutropenic rabbit model of invasive aspergillosis, organ cultures; assay type: in vivo, A. fumigatus (in rabbits); conditions: 30 days; Free AmpB 4.5 mg/Kg/day; Lipidic-AmpB 6-9 mg/Kg/day
[4] = pH 7.4; cited from earlier work

CC(C)CCC[C@@H](C)[C@H]1CC[C@H]2[C@@H]3CC=C4C[C@@H](OC(=O)CCC(=O)O)CC[C@]4(C)[C@H]3CC[C@]12C [Chems, cholesterol hemisuccinate]
solubility in DMSO [1]: soluble

CC(C)CCC[C@@H](C)[C@H]1CC[C@H]2[C@@H]3CC=C4C[C@@H](OS(=O)(=O)O)CC[C@]4(C)[C@H]3CC[C@]12C [CholSO4, cholesterol sulfate]
solubility in DMSO ([1]; DMSO): soluble

CC(C)CCC[C@@H](C)[C@H]1CC[C@H]2[C@@H]3CC=C4C[C@@H](O)CC[C@]4(C)[C@H]3CC[C@]12C [Cholesterol]
solubility in 1-methyl-2-pyrrolidinone ([1]; 1-methyl-2-pyrrolidinone): exceedingly soluble

CC1/C=C/C=C/C=C/C=C/C=C/C=C/C=C/C(OC2OC(C)C(O)C(N)C2O)CC2OC(O)(CC(O)CC(O)C(O)CCC(O)CC(O)CC(=O)OC(C)C(C)C1O)CC(O)C2C(=O)O (stereo not shown) [Free AmpB]
Acute mortality (death within 24 hours) ([2]; 4.5 mg/Kg): 3/8 | Acute mortality (death within 24 hours) ([2]; 7.5 mg/Kg): 4/4 | Organ Cultures (No. Sterile/Total), Kidney [3]: 5/5 | Organ Cultures (No. Sterile/Total), Liver [3]: 5/5 | Organ Cultures (No. Sterile/Total), Lung [3]: 3/5

CC1C/C=C/C=C/C=C/C=C/C(OC2OC(C)C(O)C(N)C2O)CC2OC(O)(CC(O)CC3OC3/C=C/C(=O)O1)CC(O)C2C(=O)O (stereo not shown) [Primaricin]
solubility in DMSO [1]: very soluble | stability of solution in DMSO:MP [1]: stable yellow solution

COc1cccc2c1C(=O)c1c(O)c3c(c(O)c1C2=O)C[C@@](O)(C(=O)CO)C[C@@H]3O[C@H]1C[C@H](N)[C@H](O)[C@H](C)O1 [doxorubicin]
solubility in DMSO ([1]; DMSO): very soluble | aqueous solubility [4]: low aqueous solubility

cis-platinum
solubility in DMSO ([1]; DMSO): exceedingly soluble
